Columns and labels:
[1] = tested on: leukemia cell lines; assay: Resazurin cell viability assay on leukemia cell lines (72 h growth inhibition, GI50); type: cell-based; conditions: Homo sapiens, MV4-11 cells
Experimental: Compounds from Example 1 were subjected to a standard MTT (3-(4,5-dimethylthiazol-2-yl)-2,5-diphenyltetrazolium bromide) and resazurin assays on solid tumour cell lines and leukemia cell lines, respectively, as previously reported (Wang S et al., J Med Chem 47:1662-1675, 2004 and Diab S. et al. CheMedChem 9:962-972, 2014). Compound concentrations required to inhibit 50% of cell growth (GI50) were calculated using non-linear regression analysis.

[2] = molecular target: T1, CDKs and other kinases (Homo sapiens, UniProt P50613); assay: Radiometric kinase assay (Eurofins Pharma Discovery or Reaction Biology Corporation Kinase Profiler); type: biochemical; conditions: CDK7H; for remaining activity at 10 µM: compound at 10 μM, read-out: residual activity (%) at 10 μM CDK7H; for Ki: read-out: CDK inhibition, Ki (μM) CDK7H
T1 construct: other: CDK7H; residual activity (%) at 10 μM CDK7H; compound at 10 μM
Experimental: (§1) Eurofins Pharma Discovery or Reaction Biology Corporation Kinase Profiler services were used to measure inhibition of CDKs and other kinases by radiometric assay. Inhibition of CDK4/D1, CDK6/D3 and CDK9/T1 were also determined in-house using ADP Glo Kinase assays (Promega Corporation, Madison, USA). Briefly, the kinase reaction for CDK4/D1 and CDK6/D3 was performed with kinase reaction buffer ([…] Tris base pH 7.5, 20 mM MgCl2, 0.4 mM DTT), 0.1 mg/ml BSA and RB-CTF substrate (retinoblastoma protein 1 C-terminal fraction). For CDK9/CyclinT1, the kinase reaction was performed with standard assay buffer and Kinase Dilution Buffer and RBER-IRStide substrate. Serial dilutions of 1:3 were prepared for test compounds for 10 concentrations (from 10 μM to 0.5 nM). The kinase reactions were started by addition of ATP, incubated for 40 min at 37° C. and then stopped by adding 10 μL of ADP Glo reagent. After incubation at room temperature in the dark for 40 min, 20 μL of kinase detection reagent was added per well and incubated for 40 min. Luminescence was measured using an EnVision Multilabel plate reader (PerkinElmer, Buckinghamshire, UK). Positive and negative controls were performed in the presence and absence of CDK kinases, respectively. Half-maximal inhibition (IC50) values were calculated using a 4-parameter logistic non-linear regression model with Graphpad prism (Version 6.0). Apparent inhibition constants (Ki) values were calculated from Km (ATP) and IC50 values for the respective kinases.

[3] = molecular target: T2, CDKs and other kinases (Homo sapiens, UniProt P06493); assay: as above; type: biochemical; conditions: CDK1B; for remaining activity at 10 µM: compound at 10 μM, read-out: residual activity (%) at 10 μM CDK1B; for Ki: read-out: CDK inhibition, Ki (μM) CDK1B
T2 construct: other: CDK1B; residual activity (%) at 10 μM CDK1B; compound at 10 μM
Experimental: as §1

[4] = molecular target: T3, CDKs and other kinases (Homo sapiens, UniProt P24941); assay: as above; type: biochemical; conditions: CDK2A; for remaining activity at 10 µM: compound at 10 μM, read-out: residual activity (%) at 10 μM CDK2A; for Ki: read-out: CDK inhibition, Ki (μM) CDK2A
T3 construct: other: CDK2A; residual activity (%) at 10 μM CDK2A; compound at 10 μM
Experimental: as §1

[5] = molecular target: CDK9/T1 (Homo sapiens, UniProt P50750); assay: ADP Glo Kinase assay CDK9/T1; type: biochemical; conditions: CDK9T1; read-out: CDK inhibition, Ki (μM) CDK9T1
Experimental: as §1

[6] = molecular target: CDK4/D1 (Homo sapiens, UniProt P11802); assay: ADP Glo Kinase assay CDK4/D1; type: biochemical; conditions: CDK4D1; for remaining activity at 10 µM: compound at 10 μM, read-out: residual activity (%) at 10 μM CDK4D1
Experimental: as §1

Sequence of CDK4/D1 (P11802 whole entry): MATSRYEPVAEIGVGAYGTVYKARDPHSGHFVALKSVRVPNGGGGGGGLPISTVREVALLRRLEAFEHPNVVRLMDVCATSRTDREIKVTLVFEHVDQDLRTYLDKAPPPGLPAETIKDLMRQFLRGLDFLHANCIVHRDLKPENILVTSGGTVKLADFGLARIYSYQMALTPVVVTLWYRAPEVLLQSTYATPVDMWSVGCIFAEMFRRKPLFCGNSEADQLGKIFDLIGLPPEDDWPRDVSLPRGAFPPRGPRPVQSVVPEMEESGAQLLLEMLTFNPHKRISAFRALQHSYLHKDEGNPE
Sequence of CDK4/D1 (P24385 whole entry partner): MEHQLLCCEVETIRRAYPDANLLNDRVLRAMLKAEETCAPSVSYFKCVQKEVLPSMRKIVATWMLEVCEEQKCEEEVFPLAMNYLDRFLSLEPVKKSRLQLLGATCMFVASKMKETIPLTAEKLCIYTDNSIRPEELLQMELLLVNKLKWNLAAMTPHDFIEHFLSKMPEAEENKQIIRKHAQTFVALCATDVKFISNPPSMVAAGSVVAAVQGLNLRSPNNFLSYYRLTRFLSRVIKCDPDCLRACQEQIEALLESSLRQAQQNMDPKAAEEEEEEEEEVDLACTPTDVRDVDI
T2 sequence (P06493 whole entry): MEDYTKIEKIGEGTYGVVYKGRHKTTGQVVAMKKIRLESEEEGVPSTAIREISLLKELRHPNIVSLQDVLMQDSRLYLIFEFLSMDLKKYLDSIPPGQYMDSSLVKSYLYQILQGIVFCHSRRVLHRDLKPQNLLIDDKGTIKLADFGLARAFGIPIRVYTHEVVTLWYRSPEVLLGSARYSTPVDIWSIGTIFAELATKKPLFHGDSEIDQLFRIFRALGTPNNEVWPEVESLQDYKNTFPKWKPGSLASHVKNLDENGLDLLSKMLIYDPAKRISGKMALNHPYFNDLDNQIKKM
Sequence of CDK9/T1 (P50750 whole entry): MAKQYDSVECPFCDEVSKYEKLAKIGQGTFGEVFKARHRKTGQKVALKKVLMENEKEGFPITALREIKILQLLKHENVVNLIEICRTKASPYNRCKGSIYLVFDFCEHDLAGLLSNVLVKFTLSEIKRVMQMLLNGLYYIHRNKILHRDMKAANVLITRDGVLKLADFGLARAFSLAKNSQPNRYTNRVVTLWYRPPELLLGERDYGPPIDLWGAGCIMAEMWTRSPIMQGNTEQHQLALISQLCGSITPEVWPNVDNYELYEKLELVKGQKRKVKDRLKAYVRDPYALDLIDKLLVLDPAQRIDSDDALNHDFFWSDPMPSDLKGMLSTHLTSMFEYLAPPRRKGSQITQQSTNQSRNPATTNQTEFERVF
Sequence of CDK9/T1 (O60563 whole entry partner): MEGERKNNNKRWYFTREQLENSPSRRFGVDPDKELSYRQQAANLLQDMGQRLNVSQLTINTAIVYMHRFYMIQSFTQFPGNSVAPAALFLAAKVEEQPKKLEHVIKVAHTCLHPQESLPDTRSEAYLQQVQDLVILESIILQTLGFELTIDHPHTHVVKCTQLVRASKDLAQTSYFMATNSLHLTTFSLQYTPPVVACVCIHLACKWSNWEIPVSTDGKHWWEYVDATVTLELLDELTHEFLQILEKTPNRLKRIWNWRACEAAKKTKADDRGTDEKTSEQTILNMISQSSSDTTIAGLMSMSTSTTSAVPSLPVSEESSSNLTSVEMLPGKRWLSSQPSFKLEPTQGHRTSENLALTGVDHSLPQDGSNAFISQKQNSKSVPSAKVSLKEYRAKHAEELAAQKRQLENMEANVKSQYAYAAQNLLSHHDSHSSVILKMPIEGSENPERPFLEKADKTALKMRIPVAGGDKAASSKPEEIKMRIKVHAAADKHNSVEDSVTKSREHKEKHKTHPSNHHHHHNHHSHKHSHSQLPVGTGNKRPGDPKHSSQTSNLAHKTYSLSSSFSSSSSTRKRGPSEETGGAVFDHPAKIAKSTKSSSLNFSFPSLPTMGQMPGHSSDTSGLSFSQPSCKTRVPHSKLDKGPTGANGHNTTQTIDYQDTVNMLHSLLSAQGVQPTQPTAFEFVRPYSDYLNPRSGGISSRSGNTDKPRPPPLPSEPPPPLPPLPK
T1 sequence (P50613 whole entry): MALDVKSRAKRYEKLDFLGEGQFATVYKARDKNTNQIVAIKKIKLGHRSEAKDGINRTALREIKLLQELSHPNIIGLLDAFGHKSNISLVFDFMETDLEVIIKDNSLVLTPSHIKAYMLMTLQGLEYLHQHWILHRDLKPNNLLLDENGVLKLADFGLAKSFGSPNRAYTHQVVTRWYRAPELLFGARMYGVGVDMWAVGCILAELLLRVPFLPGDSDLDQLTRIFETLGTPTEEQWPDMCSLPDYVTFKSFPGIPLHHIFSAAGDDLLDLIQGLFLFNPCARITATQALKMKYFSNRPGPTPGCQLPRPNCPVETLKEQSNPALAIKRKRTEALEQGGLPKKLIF

| Structure (SMILES) | GI50 [1] | remaining activity at 10 µM [2] | remaining activity at 10 µM [3] | remaining activity at 10 µM [4] | Ki [5] | remaining activity at 10 µM [6] | Ki [2] | Ki [3] | Ki [4] | Ki ([6]; read-out: CDK inhibition, Ki (μM) CDK4D1) |
| --- | --- | --- | --- | --- | --- | --- | --- | --- | --- | --- |
| CCN[C@H]1CC[C@H](Nc2ncc(C)c(-c3cnc4ccc(-c5ccccc5)cn34)n2)CC1 [Compound 131, (1r,4r)-N^1-Ethyl-N^4-(5-methyl-4-(6-phenylimidazo[1,2-a]pyridin-3-yl)pyrimidin-2-yl)cyclohexane-1,4-diamine] | 0.132 ± 0.059 µM | 20% | 29% | 44% | 0.32 µM | 24% | – | – | – | – |
| Cc1cnc(N[C@H]2CC[C@H](C)CC2)nc1-c1cnc2ccc(Nc3cncnc3)cn12 [Compound 152, 3-(5-Methyl-2-(((1r,4r)-4-methylcyclohexyl)amino)pyrimidin-4-yl)-N-(pyrimidin-5-yl)imidazo[1,2-a]pyridin-6-amine] | 2.86 ± 0.29 µM | 55% | 34% | 5% | 0.181 µM | 20% | – | – | – | – |
| Cc1cnc(N[C@H]2CC[C@H](N)CC2)nc1-c1cnc2cc(C(F)(F)F)c(-c3ccccc3)cn12 [Compound 150, (1r,4r)-N1-(5-Methyl-4-(6-phenyl-7-(trifluoromethyl)imidazo[1,2-a]pyridin-3-yl)pyrimidin-2-yl)cyclohexane-1,4-diamine] | 0.42 ± 0.02 µM | – | 45% | 11% | 0.149 µM | 21% | 0.372 µM | – | – | – |
| Cc1cnc(NC2CCC(F)(F)CC2)nc1-c1cnc2ccc(-c3ccccc3)cn12 [Compound 155, N-(4,4-Difluorocyclohexyl)-5-methyl-4-(6-phenylimidazo [1,2-a]pyridin-3-yl)pyrimidin-2-amine] | 7 ± 2.03 µM | 99% | 100% | 100% | > 5 µM | 96% | – | – | – | – |
| Cc1cnc(N[C@H]2CC[C@H](NS(C)(=O)=O)CC2)nc1-c1cnc2ccc(Nc3cncnc3)cn12 [Compound 126, N-((1r,4r)-4-((5-Methyl-4-(6-(pyrimidin-5-ylamino)imidazo[1,2-a]pyridin-3-yl)pyrimidin-2-yl)amino)cyclohexyl)methanesulfonamide] | > 5 µM | 94% | 2% | – | 0.111 µM | 14% | – | – | 0.089 µM | – |
| CN1CCC(Nc2ncc(F)c(-c3cnc4ccc(Nc5cncnc5)cn34)n2)CC1 [Compound 149, 3-(5-Fluoro-2-((1-methylpiperidin-4-yl)amino)pyrimidin-4-yl)-N-(pyrimidin-5-yl)imidazo[1,2-a]pyridin-6-amine] | 0.145 ± 0.001 µM | – | 9% | 20% | 0.178 µM | 3% | 0.313 µM | – | – | – |
| Cc1cnc(N[C@H]2CC[C@H](C)CC2)nc1-c1cnc2ccc(-c3ccccc3)cn12 [Compound 151, 5-Methyl-N-((1r,4r)-4-methylcyclohexyl)-4-(6-phenylimidazo[1,2-a]pyridin-3-yl)pyrimidin-2-amine] | 8.643 ± 0.01 µM | 94% | 96% | 87% | > 5 µM | 93% | – | – | – | – |

These reach a lower GI50 [1]. Values come first.

| GI50 [1] | remaining activity at 10 µM [2] | remaining activity at 10 µM [3] | remaining activity at 10 µM [4] | Ki [5] | remaining activity at 10 µM [6] | Ki [2] | Ki [3] | Ki [4] | Ki ([6]; read-out: CDK inhibition, Ki (μM) CDK4D1) | Structure (SMILES) |
| --- | --- | --- | --- | --- | --- | --- | --- | --- | --- | --- |
| 0.023 ± 0.007 µM | 18% | 27% | 46% | 0.261 µM | 70% | – | – | – | – | CN1CCC(Nc2ncc(F)c(-c3cnc4ccc(-c5ccc(S(=O)(=O)N(C)C)cc5)cn34)n2)CC1 [Compound 148, 4-(3-(5-Fluoro-2-((1-methylpiperidin-4-yl)amino)pyrimidin-4-yl)imidazo[1,2-a]pyridin-6-yl)-N,N-dimethylbenzenesulfonamide] |
| 0.005 ± 0.003 µM | – | – | 8% | 0.138 µM | 20% | 0.072 µM | 0.047 µM | – | – | CN1CCC(Nc2ncc(F)c(-c3cnc4ccc(-c5ccccc5)cn34)n2)CC1 [Compound 144, 5-Fluoro-N-(1-Methylpiperidin-4-yl)-4-(6-phenylimidazo [1,2-a]pyridin-3-yl)pyrimidin-2-amine] |
| 0.003 ± 0.001 µM | – | 3% | 4% | 0.108 µM | 4% | 0.088 µM | – | – | – | Fc1cnc(NC2CCNCC2)nc1-c1cnc2ccc(-c3ccccc3)cn12 [Compound 143, 5-Fluoro-4-(6-phenylimidazo[1,2-a]pyridin-3-yl)-N-(piperidin-4-yl)pyrimidin-2-amine] |
| 0.003 ± 0.001 µM | 12% | 10% | 7% | 0.027 µM | 21% | – | – | – | – | COc1cnc(N[C@H]2CC[C@H](N)CC2)nc1-c1cnc2ccc(-c3ccccc3)cn12 [Compound 89, (1r,4r)-N^1-(5-Methoxy-4-(6-phenylimidazo[1,2-a]pyridin-3-yl)pyrimidin-2-yl)cyclohexane-1,4-diamine] |
| 0.084 ± 0.008 µM | – | – | – | 0.078 µM | – | 0.27 µM | 0.795 µM | 0.527 µM | 0.004 µM | CN1CCC(Nc2ncc(F)c(-c3cnc4ccccn34)n2)CC1 [Compound 19, 5-Fluoro-4-(imidazo[1,2-a]pyridin-3-yl)-N-(1-methylpiperidin-4-yl)pyrimidin-2-amine] |
| < 0.01 µM | – | 3% | 0% | 0.003 µM | 7% | 0.04 µM | – | – | – | Fc1cnc(N[C@H]2CC[C@H](N3CCCC3)CC2)nc1-c1cnc2ccc(-c3ccccc3)cn12 [Compound 137, 5-Fluoro-4-(6-phenylimidazo[1,2-a]pyridin-3-yl)-N-((1r,4r)-4-(pyrrolidin-1-yl)cyclohexyl)pyrimidin-2-amine] |
| 0.064 ± 0.017 µM | 39% | 23% | 15% | 0.025 µM | 8% | – | – | – | – | Cc1cnc(N[C@H]2CC[C@H](N3CCCC3)CC2)nc1-c1cnc2ccc(Nc3cncnc3)cn12 [Compound 142, 3-(5-Methyl-2-(((1r,4r)-4-(pyrrolidin-1-yl)cyclohexyl)amino)pyrimidin-4-yl)-N-(pyrimidin-5-yl)imidazo [1,2-a]pyridin-6-amine] |
| 0.003 ± 0.001 µM | – | – | – | 0.069 µM | -11% | 0.6 µM | 0.479 µM | 0.321 µM | – | Fc1cnc(NC2CCNCC2)nc1-c1cnc2ccccn12 [Compound 21, 5-Fluoro-4-(imidazo[1,2-a]pyridin-3-yl)-N-(piperidin-4-yl)pyrimidin-2-amine] |
| 0.092 ± 0.01 µM | – | 56% | 54% | 0.829 µM | 29% | 1.75 µM | – | – | – | CC(C)(C)OC(=O)N1CCC(Nc2ncc(F)c(-c3cnc4ccccn34)n2)CC1 [Compound 20, tert-Butyl 4-((5-fluoro-4-(imidazo[1,2-a]pyridin-3-yl)pyrimidin-2-yl)amino)piperidine-1-carboxylate] |
